Data from patent publication US9458198B1, “Cyclic peptide-based NPR-B agonists” (priority 2009, dated 2016).
Where two headings read alike, the source gives them in different places. Where a SMILES comes first, the peptide text is derived from it. Bridges are numbered along the chain shown (N, C = ends). [ ]: non-standard residue; d: D form. The star is where a group is joined. Hexanoyl = CCCCCC(=O)*

Molecular target: T1, NPR-B (Homo sapiens, UniProt P20594)
T1 construct: a functional assay using endogenously NPR-B expressing GTM-3 cells; endogenous in cells; host or cells: GTM-3 (transformed human trabecular meshwork cells)
T1 sequence (P20594 23-1047): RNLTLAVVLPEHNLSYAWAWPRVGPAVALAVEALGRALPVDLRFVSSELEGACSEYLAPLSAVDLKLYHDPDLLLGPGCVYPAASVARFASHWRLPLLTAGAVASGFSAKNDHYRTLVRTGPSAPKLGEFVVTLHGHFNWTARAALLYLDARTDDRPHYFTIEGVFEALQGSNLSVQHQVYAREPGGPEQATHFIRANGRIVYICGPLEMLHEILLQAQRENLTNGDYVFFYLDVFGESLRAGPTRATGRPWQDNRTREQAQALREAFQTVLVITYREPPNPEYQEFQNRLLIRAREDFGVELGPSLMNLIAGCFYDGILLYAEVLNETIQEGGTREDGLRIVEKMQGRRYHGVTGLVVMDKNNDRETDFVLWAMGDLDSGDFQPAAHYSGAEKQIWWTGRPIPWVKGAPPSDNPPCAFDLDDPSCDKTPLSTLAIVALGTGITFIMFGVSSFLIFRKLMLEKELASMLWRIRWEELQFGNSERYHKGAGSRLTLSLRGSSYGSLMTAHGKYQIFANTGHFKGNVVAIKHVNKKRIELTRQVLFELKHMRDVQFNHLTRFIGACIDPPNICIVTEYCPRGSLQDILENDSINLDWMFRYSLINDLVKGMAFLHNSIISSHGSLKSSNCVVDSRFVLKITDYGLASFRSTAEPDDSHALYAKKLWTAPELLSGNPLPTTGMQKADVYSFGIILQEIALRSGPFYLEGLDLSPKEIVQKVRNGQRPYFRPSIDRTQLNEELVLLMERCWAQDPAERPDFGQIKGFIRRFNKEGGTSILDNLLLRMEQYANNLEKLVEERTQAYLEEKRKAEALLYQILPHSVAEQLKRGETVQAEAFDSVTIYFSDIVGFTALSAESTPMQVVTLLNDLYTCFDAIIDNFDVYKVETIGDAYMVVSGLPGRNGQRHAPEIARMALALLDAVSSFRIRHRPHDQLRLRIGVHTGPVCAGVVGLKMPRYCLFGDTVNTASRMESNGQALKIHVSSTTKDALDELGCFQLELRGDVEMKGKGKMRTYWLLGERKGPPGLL
Test: NPR-B induced production of cyclic GMP in GTM-3 cells
Format: cell-based
Description: The efficacy and potency of compounds to activate NPR-B were evaluated in a functional assay using endogenously NPR-B expressing GTM-3 cells (Pang et al. 1994, Curr Eye Res 13:51-63). In this assay the dose dependent production of cyclic GMP (cGMP) is determined and Emax (maximum activation) and EC50 values are calculated.
The cell culture medium is aspirated and each well is washed with 200 μl DMEM/Ham's F12=Medium (Gibco). Then, 200 μl Medium supplemented with 1 mM IBMX (3-Isobutyl-1-methyl-xanthin, Sigma) is added to each well and incubated for 15 min. at room temperature.
Final compound concentrations are in the range from 45 μM to 20 nM.

[1] = GTM-3 cells, group needs both EC50 and Emax criteria, checked A then B then C, read-out: Activity (group): NPR-B activation, EC50 and Emax (CNP = 100%)
[2] = Activity (group): NPR-B activation, EC50 and Emax (CNP = 100%), GTM-3 cells, group needs both EC50 and Emax criteria, checked A then B then C

Row | EC50 [1] | Structure (SMILES) | further results
1 |  | CCCCCC(=O)N[C@H]1CSSC[C@@H](C(N)=O)NC(=O)[C@H](CO)NC(=O)[C@H]([C@@H](C)CC)NC(=O)[C@H](CCCNC(=N)N)NC(=O)[C@H](CC(=O)O)NC(=O)[C@H](CC(C)C)NC(=O)[C@@H]2CCCN2C(=O)[C@H](CC(C)C)NC(=O)CNC(=O)[C@H](Cc2ccccc2)NC(=O)[C@@H](C)NC1=O [compound 93] | EC50 [2]: < 1 µM
2 | < 5 µM | CSCC[C@H](N)C(=O)N[C@H]1CSSC[C@@H](C(N)=O)NC(=O)[C@H](CO)NC(=O)[C@H](CC(C)C)NC(=O)[C@H](CCCNC(=N)N)NC(=O)[C@H](CC(=O)O)NC(=O)[C@H](CC(C)C)NC(=O)[C@H](CCCCN)NC(=O)[C@H](CC(C)C)NC(=O)CNC(=O)[C@H](Cc2ccccc2)NC(=O)[C@@H](C)NC1=O [compound 56] (H-MC[dA]FGLKLDRLSC-NH2; disulfide 2-13) | 
3 | < 15 µM | CCCC[C@H](N)C(=O)N[C@H]1CSSC[C@@H](C(N)=O)NC(=O)[C@H](CO)NC(=O)[C@H]([C@@H](C)CC)NC(=O)[C@H](CCCNC(=N)N)NC(=O)[C@H](CC(=O)O)NC(=O)[C@H](CC(C)C)NC(=O)[C@H](CCCCN)NC(=O)[C@H](CC(C)C)NC(=O)CNC(=O)[C@H](Cc2ccccc2)NC(=O)[C@H](Cc2c[nH]cn2)NC1=O [compound 16] | 
4 |  | CCCCCC(=O)N[C@H]1CSSC[C@@H](C(N)=O)NC(=O)[C@H](CO)NC(=O)[C@H]([C@@H](C)CC)NC(=O)[C@H](CCCNC(=N)N)NC(=O)[C@H](CC(=O)O)NC(=O)[C@H](CC(C)C)NC(=O)[C@H](CCCCN)NC(=O)[C@H](CC(C)C)NC(=O)CNC(=O)[C@H](Cc2ccccc2)NC(=O)[C@@H](C)NC1=O [compound 65] | EC50 (Activity (group): NPR-B activation, EC50 and Emax (CNP = 100%)): < 1 µM
5 | < 5 µM | CCCCS(=O)(=O)N[C@H]1CSSC[C@@H](C(N)=O)NC(=O)[C@H](CO)NC(=O)[C@H]([C@@H](C)CC)NC(=O)[C@H](CCCNC(=N)N)NC(=O)[C@H](CC(=O)O)NC(=O)[C@H](CC(C)C)NC(=O)[C@H](CCCCN)NC(=O)[C@H](CC(C)C)NC(=O)CNC(=O)[C@H](Cc2ccccc2)NC(=O)[C@@H](C)NC1=O [compound 71] | 
6 | < 5 µM | CC[C@H](C)[C@@H]1NC(=O)[C@H](CCCNC(=N)N)NC(=O)[C@H](CC(=O)O)NC(=O)[C@H](CC(C)C)NC(=O)[C@H](CCCCN)NC(=O)[C@H](CC(=O)O)NC(=O)CNC(=O)[C@H](Cc2ccccc2)NC(=O)[C@H](Cc2c[nH]cn2)NC(=O)[C@@H](NC(=O)[C@@H](N)CCSC)CSSC[C@@H](C(N)=O)NC(=O)[C@H](CO)NC1=O [compound 19] (H-MCHFGDKLDRISC-NH2; disulfide 2-13) | 
7 | < 5 µM | CC[C@H](C)[C@@H]1NC(=O)[C@H](CCCNC(=N)N)NC(=O)[C@H](CC(=O)O)NC(=O)[C@H](CC(C)C)NC(=O)[C@H](CCCCN)NC(=O)[C@H](CC(C)C)NC(=O)CNC(=O)[C@H](Cc2ccccc2)NC(=O)[C@H](Cc2c[nH]cn2)NC(=O)[C@@H](NC(=O)[C@@H](N)CCSC)CSSC[C@@H](C(=O)N[C@@H](CC(N)=O)C(=O)N[C@@H](CCCNC(=N)N)C(N)=O)NC(=O)[C@H](CO)NC1=O [compound 22] (H-MCHFGLKLDRISCNR-NH2; disulfide 2-13) | 
8 | < 1 µM | CC[C@H](C)[C@@H]1NC(=O)[C@H](CCCNC(=N)N)NC(=O)[C@H](CC(=O)O)NC(=O)[C@H]([C@@H](C)CC)NC(=O)[C@H](CCCCN)NC(=O)[C@H](CC(C)C)NC(=O)CNC(=O)[C@H](Cc2ccccc2)NC(=O)[C@@H](C)NC(=O)[C@@H](NC(=O)[C@@H](N)CCSC)CSSC[C@@H](C(N)=O)NC(=O)[C@H](CO)NC1=O [compound 53] (H-MC[dA]FGLKIDRISC-NH2; disulfide 2-13) | 
9 |  | CCCCCC(=O)N[C@H]1CSSC[C@@H](C(N)=O)NC(=O)[C@H](CO)NC(=O)[C@H]([C@@H](C)CC)NC(=O)[C@H](CCCNC(=N)N)NC(=O)[C@H](CC(=O)O)NC(=O)[C@H]([C@@H](C)CC)NC(=O)[C@@H]2CCCN2C(=O)[C@H](CC(C)C)NC(=O)CNC(=O)[C@H](Cc2ccccc2)NC(=O)[C@H]2CCCN2C1=O [compound 89] (Hexanoyl-C[dP]FGLPIDRISC-NH2; disulfide 1-12) | EC50 [2]: < 1 µM
10 |  | CC[C@H](C)[C@@H]1NC(=O)[C@H](CCCNC(=N)N)NC(=O)[C@H](CC(=O)O)NC(=O)[C@H](CC(C)C)NC(=O)[C@@H]2CCCN2C(=O)[C@H](CC(C)C)NC(=O)CNC(=O)[C@H](Cc2ccccc2)NC(=O)[C@@H](C)NC(=O)[C@@H](NC(=O)[C@@H](N)CCSC)CSSC[C@@H](C(N)=O)NC(=O)[C@H](CO)NC1=O [compound 49] | EC50 [2]: < 1 µM
11 |  | CC[C@H](C)[C@@H]1NC(=O)[C@H](CCCNC(=N)N)NC(=O)[C@H](CC(=O)O)NC(=O)[C@H](CC(C)C)NC(=O)[C@H](CCCCN)NC(=O)[C@H](CC(C)C)NC(=O)CNC(=O)[C@H](Cc2ccccc2)NC(=O)[C@@H](C)NC(=O)[C@@H](N)CSSC[C@@H](C(N)=O)NC(=O)[C@H](CO)NC1=O [compound 73] | EC50 [2]: < 15 µM
12 | < 5 µM | CC[C@H](C)[C@@H]1NC(=O)[C@H](CCCNC(=N)N)NC(=O)[C@H](CC(=O)O)NC(=O)[C@H](CC(C)C)NC(=O)[C@H](CCCCN)NC(=O)[C@H](CC(C)C)NC(=O)CNC(=O)[C@H](Cc2ccccc2)NC(=O)[C@H](Cc2c[nH]cn2)NC(=O)[C@@H](NC(=O)[C@@H](N)CCSC)CSSC[C@@H](C(=O)N[C@@H](CC(C)C)C(=O)N[C@@H](CCCNC(=N)N)C(N)=O)NC(=O)[C@H](CO)NC1=O [compound 23] (H-MCHFGLKLDRISCLR-NH2; disulfide 2-13) | 
13 | < 5 µM | CC[C@H](C)[C@@H]1NC(=O)[C@H](CCCNC(=N)N)NC(=O)[C@H](CC(=O)O)NC(=O)[C@H](CC(C)C)NC(=O)[C@H](CCCCN)NC(=O)[C@H](CC(C)C)NC(=O)[C@@H](C)NC(=O)[C@H](Cc2ccccc2)NC(=O)CNC(=O)[C@@H](NC(=O)[C@@H](N)CCSC)CSSC[C@@H](C(N)=O)NC(=O)[C@H](CO)NC1=O [compound 34] (H-MCGF[dA]LKLDRISC-NH2; disulfide 2-13) | 
14 |  | CC[C@H](C)[C@@H]1NC(=O)[C@H](CCCNC(=N)N)NC(=O)[C@H](CC(=O)O)NC(=O)[C@H](CC(C)C)NC(=O)[C@H](CCCCN)NC(=O)[C@H](CC(C)C)NC(=O)CNC(=O)[C@H](Cc2ccccc2)NC(=O)[C@@H](C)NC(=O)[C@@H](NC(=O)c2ccccc2)CSSC[C@@H](C(N)=O)NC(=O)[C@H](CO)NC1=O [compound 66] | EC50 [2]: < 5 µM

Row | Structure (SMILES) | EC50 [1] | further results
15 | CCCCCC(=O)N[C@H]1CSSC[C@@H](C(N)=O)NC(=O)[C@H](CO)NC(=O)[C@H]([C@@H](C)CC)NC(=O)[C@H](Cc2ccc(C(=N)N)cc2)NC(=O)[C@H](CC(=O)O)NC(=O)[C@H](CC(C)C)NC(=O)[C@H](CCCCN)NC(=O)[C@H](CC(C)C)NC(=O)CNC(=O)[C@H](Cc2ccccc2)NC(=O)[C@@H](C)NC1=O [compound 112] | < 15 µM | 
16 | CC[C@H](C)[C@@H]1NC(=O)[C@H](CCCNC(=N)N)NC(=O)[C@H](CC(=O)O)NC(=O)[C@H](CC(C)C)NC(=O)[C@H](CCCCN)NC(=O)[C@H](CC(C)C)NC(=O)CNC(=O)[C@H](Cc2ccccc2)NC(=O)[C@H](Cc2c[nH]cn2)NC(=O)[C@@H](NC(=O)[C@@H](N)CCSC)CSSC[C@@H](C(=O)N[C@@H](Cc2c[nH]cn2)C(=O)N[C@@H](CCCNC(=N)N)C(N)=O)NC(=O)[C@H](CO)NC1=O [compound 25] (H-MCHFGLKLDRISCHR-NH2; disulfide 2-13) | < 15 µM | 
17 | CCCCCC(=O)N[C@H]1CSSC[C@@H](C(N)=O)NC(=O)[C@H](CO)NC(=O)[C@H]([C@@H](C)CC)NC(=O)[C@H](CCNC(=N)N)NC(=O)[C@H](CC(=O)O)NC(=O)[C@H](CC(C)C)NC(=O)[C@H](CCCCN)NC(=O)[C@H](CC(C)C)NC(=O)CNC(=O)[C@H](Cc2ccccc2)NC(=O)[C@@H](C)NC1=O [compound 114] | < 15 µM | 
18 | CC[C@H](C)[C@@H]1NC(=O)[C@H](CCCNC(=N)N)NC(=O)[C@H](CC(=O)O)NC(=O)[C@H](CC(C)C)NC(=O)[C@H](CCCCN)NC(=O)[C@H](CC(C)C)NC(=O)CNC(=O)[C@H](Cc2ccccc2)NC(=O)[C@@H](Cc2ccccc2)NC(=O)[C@@H](NC(=O)[C@@H](N)CCSC)CSSC[C@@H](C(N)=O)NC(=O)[C@H](CO)NC1=O [compound 45] | < 15 µM | 
